Source: US20120252796A1, “COMPOUNDS FOR THE TREATMENT OF DYSLIPIDEMIA AND RELATED DISEASES” (priority 2009, published 2012)

Columns and labels:
[1] = test system: LPS induced dyslipidemia model C57 mice; assay: LDL-C lowering activity in LPS induced dyslipidemia model C57 mice; type: in vivo; conditions: male C57 mice, i.p. or oral, 24 hours after LPS, vs Vehicle group
Procedure: Male C57 mice of 7-10 week age are grouped based on non-fasting LDL-C levels, on next day these mice were administered with Vehicle or test compounds (i.p. or oral) and 30 min after compound administration lipolysaccharide (LPS) was administered. After LPS administration all animals were kept on fasting for 24 hours, after that animals were bled and LDL-C was measured. The percent change in LDL-C in test compound group Vs Vehicle group was calculated.

PCSK9 [2] = target: T1, PCSK9 (Homo sapiens, UniProt Q8NBP7); assay: PCSK9-LDLR in vitro Binding Assay (ELISA)
Procedure: The PCSK9-LDLR in vitro Binding Assay is a quantitative solid phase binding assay between PCSK9 and recombinant LDLR. Plates were pre-coated with a recombinant LDLR-AB domain, which binds PCSK9. Test compound at different concentration was added to the PCSK9 and added to LDLR immobilized on the wells. The amount of bound PCSK9 is measured by binding it with biotinylated anti-His-tag monoclonal antibody, followed by binding with horseradish peroxidase conjugated streptavidin substrate. The color was quantified by ELISA reader at […] which reflects the relative amount of PCSK9 that binds to LDLR in presence and absence of the inhibitor. EC50 values were calculated by nonlinear regression analysis using graph pad prism software. Each concentration point represents values in duplicates.
Target sequence in this assay (Q8NBP7 153-692): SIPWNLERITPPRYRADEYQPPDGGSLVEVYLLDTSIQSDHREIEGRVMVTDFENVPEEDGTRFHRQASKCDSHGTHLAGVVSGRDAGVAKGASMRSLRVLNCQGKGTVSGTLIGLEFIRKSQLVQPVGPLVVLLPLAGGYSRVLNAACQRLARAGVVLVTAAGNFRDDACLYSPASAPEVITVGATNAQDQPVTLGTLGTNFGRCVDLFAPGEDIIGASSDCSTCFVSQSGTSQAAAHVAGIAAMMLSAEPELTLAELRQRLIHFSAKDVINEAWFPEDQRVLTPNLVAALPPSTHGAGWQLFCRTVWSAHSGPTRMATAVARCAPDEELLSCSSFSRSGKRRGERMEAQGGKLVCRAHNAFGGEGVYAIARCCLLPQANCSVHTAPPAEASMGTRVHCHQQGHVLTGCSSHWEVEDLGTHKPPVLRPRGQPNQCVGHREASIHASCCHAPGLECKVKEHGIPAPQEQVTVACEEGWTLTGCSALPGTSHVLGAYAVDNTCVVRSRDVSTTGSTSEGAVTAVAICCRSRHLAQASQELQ
Target sequence in this assay (Q8NBP7 31-152 partner limits assumed): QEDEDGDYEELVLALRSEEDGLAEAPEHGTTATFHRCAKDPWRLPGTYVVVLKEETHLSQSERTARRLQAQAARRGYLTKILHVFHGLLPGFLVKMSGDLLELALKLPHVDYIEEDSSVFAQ

PCSK9 [3] = target: T1, PCSK9; assay: SPR binding studies (BIACORE3000); conditions: 25° C., phosphate buffer pH 7.4; compounds run at 10 nM, 100 nM and 1 micro mole, concentration of the value not stated
Procedure: Instrumentation: BIACORE3000 from GE Life Sciences was used and the Interaction analysis was performed at 25° C.
Buffers: phosphate buffer pH 7.4 supplied by Biacore supplemented with 0.01% dimethyl sulfoxide (DMSO) was used as running buffer during the assay.
Immobilization of Ligand: Sensor chip CM5 was used for analysis. The sensor chip consists of a carboxymethyl-modified dextran polymer linked to a gold-covered glass support. The ligand was diluted to 10 micro gram/ml in 10 mM sodium acetate, pH5.0 and immobilized to the sensor chip, using amine coupling. Running buffer without DMSO was used during immobilization. The surface was activated by injecting a solution containing 0.2M N-ethyl-N′-dimethyl aminopropyl-carbodiimide (EDC) and 50 mM N-hydroxy succinimide (NHS). The system was set for Aim for immobilization of about 1000 RU and the surface was blocked by injecting 1 Mehanolamine at pH 8.5. Then the surface was washed with 50 mM NaOH by injecting two 30 second-pulses to remove off non covalently bound ligand and to stabilize the baseline (automated procedure). Activated dextran was used as a reference surface. To ensure highest sensitivity the SPR Detector response was normalized before running the assay. By calibrating the detector at various light intensities under Conditions of total internal reflection (automated procedure). Solvent correction for DMSO was also carried to minimize the error in data.
Assay Design: A binding assay was set up for different compounds at three different concentrations (10 nM, 100 nM and 1 micro mole), and were injected over the reference and Ligand flow cells at a flow rate of 30 micro liter/min. Each cycle consisted of a 1-min waiting period for monitoring of the baseline stability and 3 minute injection of compound with a 5 minute Undisturbed dissociation phase, and the surface was regenerated with 50 mM NaoH solution. Compound responses in the reference flow cell were subtracted with that of ligand and a solvent correction run was carried in between and the binding potential of the compounds was reported as relative response units (RU).
Target sequence in this assay (Q8NBP7 153-692): as the sequence (Q8NBP7 153-692) above

[4] = test system: HF-HC diet fed Syrian golden hamsters; assay: Lipid lowering effect in HF-HC diet fed hamster model; type: in vivo; set-up: concentration or dose not given beside the values; conditions: oral gavage once daily, day 14
From the text: In this experiment, Syrian golden hamsters which were kept on high fat—high cholesterol (HF-HC) fructose diet for 2 weeks were divided into various groups based on LDL-C and Total cholesterol levels. The treatment was given by oral gavages once daily for 14 days. The blood was collected by retro-orbital sinus puncture method under light ether anesthesia on day 0 (pretreatment), and day 14 of the treatment for lipid levels measurements. The percent change in LDL-C in compound group Vs Vehicle group was calculated.

high fat diet C57 mice = assay: LDL-C lowering activity in high fat diet C57 mice; type: in vivo; conditions: C57 mice on high fat diet, orally once a day, 4-6 week treatment
Procedure: The in-vivo LDL-c lowering for test compound was tested in C57 mice which were kept on high fat diet for 4 weeks and the blood was collected by retro-orbital sinus puncture method under light ether anesthesia on day 0 (pretreatment), animal are grouped based on LDL-C levels, after that 4-6 week treatment with vehicle or test compound orally once a day was given. On completion of treatment on day 28 day and or on day 42 of the treatment the blood was collected for LDL-C levels measurement. The percent change in LDL-C in test compound group Vs Vehicle group was calculated.

| Relative response (RU) (PCSK9 [3]) | inhibition at 1 µM (PCSK9 [2]; Concentration 1 μM) | inhibition at 10 µM (PCSK9 [2]; Concentration 10 μM) | inhibition at 100 µM (PCSK9 [2]; Concentration 100 μM) | Compound | % Change in LDL-C [1] | further results |
| --- | --- | --- | --- | --- | --- | --- |
| – | – | – | – | 1-(2-methyl-5-((4-methyl-2-(4-(trifluoromethyl)phenyl)thiazol-5-yl)methyl)-1,3-dioxan-2-yl)-N—((tetrahydro-2H-pyran-4-yl)methyl)methanamine [Example 92] | −35.8 ± 10.5% | % Inhibition PCSK9 (PCSK9 [2]; Concentration 1 μM): 11%; % Inhibition PCSK9 (PCSK9 [2]; Concentration 10 μM): 26%; % Inhibition PCSK9 (PCSK9 [2]; Concentration 100 μM): 40% |
| 2.23 RU | – | – | – | Cc1oc(-c2ccncc2)nc1CC1COC(C)(C(=O)NCC2CCOCC2)OC1 (stereo not drawn) [Example 84, 2-methyl-5-c-((5-methyl-2-(pyridin-4-yl)oxazol-4-yl)methyl)-N—((tetrahydro-2H-pyran-4-yl)methyl)-1,3-dioxane-2-carboxamide] | −25.8 ± 8.6% | % Inhibition PCSK9 (PCSK9 [2]; Concentration 1 μM, 1 µM): 25%; % Inhibition PCSK9 (PCSK9 [2]; Concentration 10 μM, 10 µM): 29%; % Inhibition PCSK9 (PCSK9 [2]; Concentration 100 μM, 100 µM): 65% |
| 1.95 RU | – | – | – | N-hydroxy-2-methyl-5-(2-(5-methyl-2-phenyloxazol-4-yl)ethyl)-1,3-dioxane-2-carboxamide [Example 34] | – | % Change Vs Vehicle Control HDL-C [4]: −10.3%; % Change Vs Vehicle Control LDL-C [4]: −38.2%; % Change Vs Vehicle Control TC [4]: −32.6%; % Change Vs Vehicle Control TG [4]: 2.2%; % Inhibition PCSK9 (PCSK9 [2]; Concentration 1 μM): 11%; % Inhibition PCSK9 (PCSK9 [2]; Concentration 10 μM): 12%; % Inhibition PCSK9 (PCSK9 [2]; Concentration 100 μM): 15% |
| – | 18% | 23% | 30% | Cc1oc(-c2ccccc2)nc1CC1COC(C)(C(=O)NCC2CCOCC2)OC1 (stereo not drawn) [Example 8, 2-methyl-5-((5-methyl-2-phenyloxazol-4-yl)methyl)-N—((tetrahydro-2H-pyran-4-yl)methyl)-1,3-dioxane-2-carboxamide] | −33.5 ± 5.4% | – |
| – | – | – | – | Cc1ccc(-c2nc(CC3COC(C)(C(=O)NCC4CCOCC4)OC3)c(C)o2)cc1 (stereo not drawn) [Example 63, 2-methyl-5-c-((5-methyl-2-(p-tolyl)oxazol-4-yl)methyl)-N—((tetrahydro-2H-pyran-4-yl)methyl)-1,3-dioxane-2-carboxamide] | −9.0 ± 10.0% | % Inhibition PCSK9 (PCSK9 [2]; Concentration 1 μM, 1 µM): 39%; % Inhibition PCSK9 (PCSK9 [2]; Concentration 10 μM, 10 µM): 40%; % Inhibition PCSK9 (PCSK9 [2]; Concentration 100 μM, 100 µM): 51% |
| – | 8% | 12% | 32% | Cc1nc(-c2ccc(C(F)(F)F)cc2)sc1CC1COC(C)(C(=O)NO)OC1 (stereo not drawn) [Example 91, N-hydroxy-2-methyl-5-((4-methyl-2-(4-(trifluoromethyl)phenyl)thiazol-5-yl)methyl)-1,3-dioxane-2-carboxamide] | −37.4 ± 8.8% | – |
| – | 20% | 25% | 11% | Cc1oc(-c2ccccc2)nc1CCC1COC(C)(C(=O)N2CCOCC2)OC1 (stereo not drawn) [Example 40, (2-methyl-5-(2-(5-methyl-2-phenyloxazol-4-yl)ethyl)-1,3-dioxan-2-yl)(morpholino)methanone] | −34.1 ± 5.7% | – |
| – | 20% | 16% | 49% | Cc1nc(-c2ccc(C(F)(F)F)cc2)sc1CC1COC(C)(C(=O)N2CCOCC2)OC1 (stereo not drawn) [Example 93, (2-methyl-5-((4-methyl-2-(4-(trifluoromethyl)phenyl)thiazol-5-yl)methyl)-1,3-dioxan-2-yl)(morpholino)methanone] | −46.0 ± 6.2% | – |
| – | – | – | – | Cc1oc(-c2ccccc2)nc1CC1COC(C)(C(=O)N2CCOCC2)OC1 (stereo not drawn) [Example 12, (2-methyl-5-c-((5-methyl-2-phenyloxazol-4-yl)methyl)-1,3-dioxan-2-yl)(morpholino)methanone] | −40 ± 10.0% | % Inhibition PCSK9 (PCSK9 [2]; Concentration 10 μM): 19%; % Inhibition PCSK9 (PCSK9 [2]; Concentration 100 μM): 18% |
| 1.36 RU | 26% | 27% | 61% | Cc1ccc(-c2nc(CC3COC(C)(C(=O)NO)OC3)c(C)o2)cc1 (stereo not drawn) [Example 59, N-hydroxy-2-methyl-5-((5-methyl-2-(p-tolyl)oxazol-4-yl)methyl)-1,3-dioxane-2-carboxamide] | – | – |
| 15.81 RU | – | – | – | Cc1oc(-c2ccccc2)nc1CC1COC(C)(C(=O)N2CCN(C)CC2)OC1 (stereo not drawn) [Example 14, (2-methyl-5-c-((5-methyl-2-phenyloxazol-4-yl)methyl)-1,3-dioxan-2-yl)(4-methylpiperazin-1-yl)methanone] | – | % Inhibition PCSK9 (PCSK9 [2]; Concentration 10 μM): 41%; % Inhibition PCSK9 (PCSK9 [2]; Concentration 100 μM): 5% |
| 14.95 RU | – | – | – | Cc1oc(-c2ccncc2)nc1CC1COC(C)(C(=O)NCC(=O)N2CCOCC2)OC1 (stereo not drawn) [Example 86, 2-methyl-5-c-((5-methyl-2-(pyridin-4-yl)oxazol-4-yl)methyl)-N-(2-morpholino-2-oxoethyl)-1,3-dioxane-2-carboxamide] | – | % Inhibition PCSK9 (PCSK9 [2]; Concentration 10 μM, 10 µM): 11%; % Inhibition PCSK9 (PCSK9 [2]; Concentration 100 μM, 100 µM): 15% |
| – | – | – | – | Cc1oc(-c2ccccc2)nc1CC1COC(C)(C(=O)NO)OC1 (single isomer, unassigned) [Example 7, N-hydroxy-2-methyl-5-t-((5-methyl-2-phenyloxazol-4-yl)methyl)-1,3-dioxane-2-carboxamide] | – | % Change Vs Vehicle Control HDL-C [4]: −20.1%; % Change Vs Vehicle Control LDL-C [4]: −29.3%; % Change Vs Vehicle Control TC [4]: −29.6%; % Change Vs Vehicle Control TG [4]: −26.7%; % Inhibition PCSK9 (PCSK9 [2]; Concentration 1 μM): 11%; % Inhibition PCSK9 (PCSK9 [2]; Concentration 10 μM): 12%; % Inhibition PCSK9 (PCSK9 [2]; Concentration 100 μM): 20% |
| – | 24% | 15% | 20% | Cc1oc(-c2ccccc2)nc1CCC1COC(C)(C(=O)NCC2CCOCC2)OC1 (stereo not drawn) [Example 37, 2-methyl-5-(2-(5-methyl-2-phenyloxazol-4-yl)ethyl)-N—((tetrahydro-2H-pyran-4-yl)methyl)-1,3-dioxane-2-carboxamide] | −35.4 ± 8.3% | – |
| 2.4 RU | 25% | 27% | 37% | Cc1oc(C(C)(C)C)nc1CC1COC(C)(C(=O)N2CCOCC2)OC1 (stereo not drawn) [Example 73, (5-((2-(tert-butyl)-5-methyloxazol-4-yl)methyl)-2-methyl-1,3-dioxan-2-yl)(morpholino)methanone] | – | – |

| Compound | Relative response (RU) (PCSK9 [3]) | inhibition at 1 µM (PCSK9 [2]; Concentration 1 μM) | inhibition at 10 µM (PCSK9 [2]; Concentration 10 μM) | inhibition at 100 µM (PCSK9 [2]; Concentration 100 μM) | % Change in LDL-C [1] | further results |
| --- | --- | --- | --- | --- | --- | --- |
| Cc1oc(-c2ccccc2)nc1CC1COC(C)(C(=O)NO)OC1 (single isomer, unassigned) [Example 6, N-hydroxy-2-methyl-5-c-((5-methyl-2-phenyloxazol-4-yl)methyl)-1,3-dioxane-2-carboxamide] | 2.65 RU | – | – | – | – | % Inhibition PCSK9 (PCSK9 [2]; 5 µM): 10%; % Inhibition PCSK9 (PCSK9 [2]; 10 µM): 11%; % Inhibition PCSK9 (PCSK9 [2]; 100 µM): 22% |
| Cc1oc(-c2ccccc2)nc1CC1COC(C)(C(=O)NO)OC1 (single isomer, unassigned) [Example 4, N-(Hydroxy)-2-methyl-5-((5-methyl-2-phenyloxazol-4-yl)methyl)-1,3-dioxane-2-carboxamide] | 5.13 RU | – | 35% | 42% | −29.4 ± 4.1% | % Change Vs Vehicle Control HDL-C [4]: −25%; % Change Vs Vehicle Control LDL-C [4]: −24%; % Change Vs Vehicle Control TC [4]: −27%; % Change Vs Vehicle Control TG [4]: −35%; % Change Vs Vehicle Control HDL-C (high fat diet C57 mice): −5%; % Change Vs Vehicle Control LDL-C (high fat diet C57 mice): −24%; % Change Vs Vehicle Control TC (high fat diet C57 mice): −14%; % Change Vs Vehicle Control TG (high fat diet C57 mice): −35% |
